Test results reported in patent US9663764B2, “Generation of cardiomyocytes from human pluripotent stem cells” (Wisconsin Alumni Research Foundation, priority 2011, dated 2017).

Assays:
Format in all cases: cell-based, human
H9 hESCs = experiment: Activin A/BMP4 directed cardiac differentiation with GSK3 inhibitor pretreatment, cTnT flow cytometry; settings: for contracting cardiomyocytes generated: Activin A and BMP4 protocol without GSK3 inhibitor, H9 cells
Description: (§1) Cardiac directed differentiation using Activin A and BMP4: hPS cells maintained on Matrigel® in mTeSR1 were dissociated into single cells with Accutase (Invitrogen) at 37° C. for 5 min and then seeded onto a Matrigel®-coated cell culture dish at 100,000 cell/cm^2 in mTeSR1 supplemented with 5 μM ROCK inhibitor (Y-27632, Stemgent) (day −5). Cells were cultured in mTeSR1, changed daily. At day 0, cells were treated with 100 ng/ml Activin A (R&D) in RPMI/B27-insulin. After 24 hr, the medium was changed to RPMI/B27-insulin supplemented with 5 ng/ml BMP4 (R&D) for another 4 days. At day 5, the medium was changed with RPMI/B27-insulin. At day 7 the cells were transferred to RPMI/B27, and medim changed every 3 days. When using GSK3 inhibitors to stimulate differentiation, cells were cultured in mTeSR1 containing BIO or CHIR99021 from day −3 to day 0.
(§2) Flow Cytometry: Cells were dissociated into single cells and then fixed with 1% paraformaldehyde for 20 min at room temperature and stained with primary and secondary antibodies in PBS plus 0.1% Triton X-100 and 0.5% BSA. For the cell proliferation assay, a 17-hour pulse of BrdU was performed to identify dividing cardiomyocytes (Zhang et al., Circ. Res. 104, e30-41 (2009)). Data were collected on a FACSCaliber flow cytometer (Beckton Dickinson) and analyzed using FlowJo.
Undifferentiated H9 hESCs were cultured in the presence of 0-8 μM CH for three days prior to EB formation. EBs were cultured in suspension for 4 days before transferring to 0.1% gelatin coated plates. […] The inventors also applied the GSK3 inhibitors CH and BIO to undifferentiated H9 hESCs three days prior to directed differentiation to cardiomyocytes via Activin A and BMP4.

IMR90C4 iPSC line = experiment: Activin A/BMP4 directed cardiac differentiation with BIO pretreatment, cTnT flow cytometry; settings: three days of BIO pretreatment prior to Activin A and BMP4; day 15
Description: as §1
as §2, with “FlowJo. […]” for “FlowJo.”

[1] = system: Smad1/5 and Smad2 phosphorylation in 19-9-11 ishcat cells; experiment: Smad1/5 and Smad2 phosphorylation, western blot; settings: for Smad1/5 and Smad2 phosphorylation: 100 ng/ml Activin A at day 0 and 5 ng/ml BMP4 at day 1
Description: Western Blot Analysis: Cells were lysed in M-PER Mammalian Protein Extraction Reagent (Pierce) in the presence of Halt Protease and Phosphatase Inhibitor Cocktail (Pierce). Proteins were separated by 10% Tris-Glycine SDS/PAGE (Invitrogen) under denaturing conditions and transferred to a nitrocellulose membrane. After blocking with 5% milk in TBST, the membrane was incubated with primary antibody overnight at 4° C. The membrane was then washed, incubated with an anti-mouse/rabbit peroxidase-conjugated secondary antibody (1:1000, Cell Signaling) at room temperature for 1 hr, and developed by SuperSignal chemiluminescence (Pierce).
To determine whether canonical Wnt signaling requires TGFβ superfamily signaling to induce cardiogenesis, the inventors quantified cTnT+ cell generation in 19-9-11 ishcat-2 cells when Activin A and BMP4 signaling antagonists were presented during the first 24 hr of cardiomyocyte induction with 12 μM CH. All samples were treated with dox at 48 hours. […] To further investigate the role of TGFβ superfamily signaling in Wnt pathway-mediated cardiogenesis the inventors assessed Smad1/5 and Smad2 phosphorylation, downstream of BMP4 and Activin A signaling respectively. As expected, substantial Smad1/5 and Smad2 phosphorylation was detected in cells that had been treated with Activin A and BMP4 (FIGS. 9B and 10A).

19-9-11 ishcat-2 cells = experiment: cTnT+ cell generation with Activin A and BMP4 signaling antagonists during CH induction; settings: dox at 48 hours
Description: (§3) cardiac directed differentiation via small molecules: Cells were dissociated and plated as described in the Activin/BMP4 protocol. When hPS cells maintained on Matrigel® or Synthemax plates achieved confluence, cells were treated with CH in RPMI/B27-insulin for 24 hr (day 0 to day 1). The medium was changed to RPMI/B27-insulin, followed by 2 μg/ml dox treatment at different times between day 1 and day 5 for transgenic cell lines. For genetically unmodified lines, 5 μM IWP2 (Tocris) or IWP4 (Stemgent) was added at day 3 and removed during the day 5 medium change. Cells were maintained in the RPMI/B27 starting from day 7, with the medium changed every 3 days.
as §2, with “For the cell proliferation assay, a 17-hour pulse of BrdU was performed to identify dividing cardiomyocytes (Zhang et al., Circ. Res. 104, e30-41 (2009)).” left out
To determine whether canonical Wnt signaling requires TGFβ superfamily signaling to induce cardiogenesis, the inventors quantified cTnT+ cell generation in 19-9-11 ishcat-2 cells when Activin A and BMP4 signaling antagonists were presented during the first 24 hr of cardiomyocyte induction with 12 μM CH. […]

19-9-11 iPSCs = experiment: Cardiac directed differentiation via small molecules on Matrigel, cTnT/MF20 flow cytometry; settings: for cTNT+ or MF20+ cells: 12 μM CH at day 0, then 5 μM Wnt inhibitor at day 3, after 15 days
Description: as §3, §2
While shRNA inhibition of β-catenin provides specific and facile temporal regulation of canonical Wnt signaling, this method requires genetic modification of the hPS cell line which limits its potential clinical utility. The inventors next used the mechanistic insight these modified lines provided regarding the sufficiency of canonical Wnt signaling in cardiomyogenesis to develop a completely defined, growth factor free method of efficiently generating cardiomyocytes from unmodified hPS cell lines using small molecules. First, 19-9-11 iPSCs were maintained in mTeSR1 on Matrigel® for five days, and then the medium was switched to RPMI/B27-insulin containing 12 μM CH. IWP4 and IWP2, which prevent palmitylation of Wnt proteins by porcupine thereby blocking Wnt protein secretion and activity (Chen et al., Nat. Chem. Biol. 5:100-107 (2009)), were used to inhibit Wnt signaling. […] Similar to results obtained with the 19-9-11 ishcat-1 cell line, CH treatment of 19-9-11 cells alone only generated 16% cTNT+ or MF20+ cells after 15 days, while adding 5 μM IWP4 or IWP2 at day 3 increased this to 87% cTNT+ or MF20+ cells. […] In order to achieve fully defined culture conditions, Matrigel® was replaced with a defined peptide acrylate surface (Synthemax) during both hPS cell expansion and differentiation. […] Thus, optimization of canonical WNT signaling via stage-specific addition of small molecule agonists and antagonists produces high yields of functional cardiomyocytes in a completely defined, growth factor free culture system.

[2] = system: 19-9-11 and IMR90C4 iPSCs; experiment: Cardiac directed differentiation via small molecules on Synthemax plates, cTnT/MF20 flow cytometry; settings: 12 μM CH at day 0 and 5 μM IWP4 at day 3, day 15
Description: as §3, §2
While shRNA inhibition of β-catenin provides specific and facile temporal regulation of canonical Wnt signaling, this method requires genetic modification of the hPS cell line which limits its potential clinical utility. […]

## O=C1Nc2cc(Br)ccc2/C1=C1/Nc2ccccc2/C1=N\O [BIO]
H9 hESCs; GSK3 inhibitor (1 μM) 3 days prior to Activin A and BMP4, day 15, average
  cTNT-labeled cells: 50%
IMR90C4 iPSC line
  generation of cTNT-expressing cells: enhanced generation of cTNT-expressing cells in the IMR90C4 iPSC line in a dose-dependent manner

## CC(C)Oc1ccc(-c2cnc3c(-c4ccnc5ccccc45)cnn3c2)cc1 [DMH1]
[1]; 12 μM CH plus DMH1
  Smad1/5 phosphorylation: strongly attenuated
19-9-11 ishcat-2 cells; 0.2-1 μM DMH1 with 12 μM CH for first 24 hr, day 15
  percentage of cTnT+ cells: decreased the percentage of cTnT+ cells in a concentration-dependent manner

## Cc1ccc2nc(NC(=O)CSc3nc4c(c(=O)n3-c3ccccc3)SCC4)sc2c1 [IWP2, N-(6-Methyl-2-benzothiazolyl)-2-[(3,4,6,7-tetrahydro-4-oxo-3-phenylthieno[3,2-d]pyrimidin-2-yl)thio]-acetamide]
19-9-11 iPSCs
  cTNT+ or MF20+ cells: 87%

## COc1ccccc1-n1c(SCC(=O)Nc2nc3ccc(C)cc3s2)nc2c(c1=O)SCC2 [IWP4, 2-(3,4,6,7-tetrahydro-3-(2-methoxyphenyl)-4-oxothieno[3,2-d]pyrimidin-2-ylthio)-N-(6-methylbenzo[d]thiazol-2-yl)acetamide]
19-9-11 iPSCs; 12 μM CH at day 0, IWP4 added at day 3
  IWP4 concentration giving optimal generation of cardiomyocytes: 5 µM
19-9-11 iPSCs
  cTNT+ or MF20+ cells: 87%
[2]
  cTNT+ or MF20+ cells: approximately 85%

## NC(=O)c1ccc(-c2nc(-c3ccc4c(c3)OCO4)c(-c3ccccn3)[nH]2)cc1 [SB431542]
[1]; 12 μM CH plus SB431542
  Smad2 phosphorylation: diminished
19-9-11 ishcat-2 cells; with 12 μM CH for first 24 hr, cTnT+ at day 15
  concentrations that completely blocked cardiomyocyte specification: greater than 2 μM

B1: BMP4: growth factor (R&D) used at 5 ng/ml for directed cardiac differentiation (protein, UniProt P12644 293-408, looked up)
Bone morphogenetic protein 4: SPKHHSQRARKKNKNCRRHSLYVDFSDVGWNDWIVAPPGYQAFYCHGDCPFPLADHLNSTNHAIVQTLVNSVNSSIPKACCVPTELSAISMLYLDEYDKVVLKNYQEMVVEGCGCR
H9 hESCs
  contracting cardiomyocytes generated: very few contracting cardiomyocytes
[1]
  Smad1/5 and Smad2 phosphorylation: substantial

B2: Activin A: growth factor (R&D) used at 100 ng/ml for directed cardiac differentiation (protein, UniProt P08476 311-426, looked up)
Inhibin beta A chain: GLECDGKVNICCKKQFFVSFKDIGWNDWIIAPSGYHANYCEGECPSHIAGTSGSSLSFHSTVINHYRMRGHSPFANLKSCCVPTKLRPMSMLYYDDGQNIIKKDIQNMIVEECGCS
modifications: Inhibin beta A chain
notes: growth factor (R&D) used at 100 ng/ml for directed cardiac differentiation
H9 hESCs
  contracting cardiomyocytes generated: very few contracting cardiomyocytes
[1]
  Smad1/5 and Smad2 phosphorylation: substantial
